# According to a melting point compilation (Tetko et al.; mined from patent text by program, amines drawn as free bases though some values may be those of a salt):
row,SMILES,melting point
1,CCC1(Cl)C(=O)c2c(cc(OCC(=O)O)c(Cl)c2Cl)C1Cl (stereo unspecified),186 °C
2,O=C1C=C/C(=C/c2cccc(C(F)(F)F)c2)O1,69 to 71 °C
3,O=C(CN1CCOCC1)Nc1ccc(-n2nc(C3CC3)cc2C2CC2)cc1,178 to 184 °C
4,CCOC(=O)C=Cc1cc(OC)c(OC)c([N+](=O)[O-])c1,87 to 88 °C
5,FC(F)(F)c1cccc(Nc2ncnc(NCc3ccco3)n2)c1,207 to 209 °C
6,CCCc1nc(N)c(C#N)[nH]1,117 to 119 °C
7,NC(N)=Nc1nc(-c2cccc(CNC=O)n2)cs1,192 to 193 °C
8,[N-]=[N+]=NC[C@H]1CN(c2ccc(N3CCSCC3)c(F)c2)C(=O)O1,91.5 to 93 °C
9,Cc1cc(-c2cc(Br)n(C)n2)c(C)[nH]1,66 to 69 °C
10,Cc1nc(N2CCN(CC3CC3)C2=O)sc1C(=O)NCc1ncccn1,218 to 220 °C
11,NC(=O)COC(=O)c1c(Cl)cccc1Cl,114 to 116 °C
12,COC(=O)C1=C(C(F)F)NC(C)=C(C(=O)OC(C)C)C1c1cccc(Cl)c1Cl (stereo unspecified),156 to 157 °C
13,CCc1nn(CCNC(=O)COC)c(CC)c1Oc1cc(Cl)cc(Cl)c1,75 to 76 °C
14,CCCc1cc(=O)oc2cc(OC(=O)C(C)(C)C)c3c(c12)OC(C)(C)C=C3,65 to 68 °C
15,CC(=O)Nc1c(F)ccc2c1CCC(C)N2 (stereo unspecified),168 to 170 °C
16,CN(C)CCNc1cc(Cl)nc(-c2ccc(Cl)c(Cl)c2)n1,99.5 to 102 °C
17,CCOc1nc(N2CCNCC2)nc(N2CCSCC2)c1[N+](=O)[O-],166 to 168 °C
18,CC(CSC(=O)Nc1ccccc1)C(=O)N(CC(=O)O)C1CCCC1 (stereo unspecified),170 to 172 °C
19,CCCOC(=O)N(C)S(=O)(=O)c1cc([N+](=O)[O-])c(N(CCC)CCC)c([N+](=O)[O-])c1,110 to 113 °C
20,COc1ccc2oc(C(=O)C34CC5CC(CC(C5)C3)C4)cc2c1,113 to 115 °C
21,Cc1ccc(Cn2nc(C(=O)O)cc2-c2ccc(F)cc2)cc1Cl,120 °C

row,SMILES,melting point
1,Nc1cc2c(Nc3ccc(F)c(Cl)c3)ncnc2cc1OCC1CC1,208 °C
2,CC(C)(C)OC(=O)NNc1ccc(NC(=O)OC(C)(C)C)cc1,155 °C
3,CCOC(=O)C(CO)C(C)c1cccnc1 (stereo unspecified),128 to 131 °C
4,C[C@@H]1C(=O)C[C@H]2C[C@@H]1OO[C@@]2(C)/C=C/c1c(F)c(F)c(F)c(F)c1F,128 °C
5,CNC(=O)N1c2ccccc2CC1C (stereo unspecified),158 to 160 °C
6,CCCCCCCCS(=O)c1ccc(CC(COC(C)=O)(COC(C)=O)NC(C)=O)cc1 (stereo unspecified),70 to 72 °C
7,CC(=O)Nc1c(C#N)c(C#N)nn1-c1c(Cl)cc(C(F)(F)F)cc1Cl,208 to 209 °C
8,Cn1c2c(n(C)c1=O)CC(=NNC(=N)N)C=C2,238 °C
9,O=c1[nH]c2cc([N+](=O)[O-])ccc2c(=O)n1CCCN1CC=C(c2ccc(Cl)cc2)CC1,210 to 212 °C
10,CC1(C)C=Cc2cc(C#N)c(N)cc2O1,137 to 138 °C
11,CNC(=S)NCCSCc1nc2ccccc2[nH]1,157 to 159 °C
12,Oc1cccc(O)c1Cl,97 °C
13,CC(C)(C)OC(=O)N1CCO[C@@H]2Cc3c(O)cccc3C[C@H]21,203 to 205 °C
14,Cc1nnc2n1-c1sc(Cl)cc1C(c1c(F)cccc1F)=NC2,185 to 187 °C
15,CC1=CCC2C(=O)OC(=O)C2C1 (stereo unspecified),58 to 63 °C
16,Nc1c(NCCCOc2cc(CN3CCCCC3)ccn2)c(=O)c1=O,226 to 228 °C
17,O=C1COc2cc(Br)c(F)cc2N1,244 °C
18,CC(=O)NC(C)(C)c1ccc(C(C)O)cc1 (stereo unspecified),146 to 149 °C
19,CCOC(=O)CC(=O)c1cc(F)c(Br)cc1F,51 to 53 °C
20,Cc1ccc2nc(SCCN(C(C)C)C(C)C)[nH]c2c1,109 to 110 °C

# Continued, values first:
row,melting point,SMILES
1,105 °C,CS(=O)(=O)NCC(=O)N[C@@H]1CN2C(=O)N(c3cc(Cl)nc(Cl)c3)C(=O)[C@@]2(Cc2ccc(OC(F)(F)F)cc2)C1
2,97 to 100 °C,CCOC(=O)c1c(-c2ccc(F)cc2)cc(-c2ccccc2)n1C(C)C
3,197 °C,O=C(NCc1ccc(Cl)c(C(F)(F)F)c1)Nc1cccc2[nH]ccc12
4,95 to 97 °C,COc1ccc(-c2cc(-c3ccc(-c4c(Cc5ccccc5)sc5ccccc45)cc3)ccc2OCC(=O)O)cc1OC
5,163 to 165 °C,CC(C)c1ccc(NC(=O)OC(C)(C)C)c(NC(=O)CC(=O)c2ccnc(C#N)c2)c1
6,96 to 98 °C,COc1cc(Cn2cnc3cccnc32)ccc1C(=O)N(C(C)C)C1CCCCC1
7,276 to 278 °C,C1=CCc2c3c(c4ccccc4c2=C1)=c1c(c2ccccc2c2ccccc12)=C3
8,99 to 100 °C,CC=C(c1ccc(OC)cc1)c1ccc(OC)cc1
9,115 to 118 °C,CCCN1C(=O)CN=C(N2CCCCCC2)c2ccccc21
10,120 to 122 °C,CSCCC(NC(=O)OCc1ccccc1)C(N)=O (racemic)
11,118 to 128 °C,CCOC(=O)Cc1nn(C(c2ccccn2)c2ncno2)c(=O)c2ccccc12 (stereo unspecified)
12,185 °C,CCn1c(=O)c2c(nc(/C=C/c3ccc(OCc4ccccc4)cc3)n2C)n(CC)c1=O
13,187 to 189 °C,O=C(O)c1cccc(OCc2c(Cl)cccc2Cl)c1
14,72.4 °C,O=C1N(c2cc(Cl)cc(Cl)c2)C(=O)C2(Cc3ccc(Br)cc3)CCC(c3ccccc3)N12 (stereo unspecified)
15,169 to 170 °C,OC(CNCCNc1ncnc2nc[nH]c12)COc1ccccc1 (stereo unspecified)
16,155 to 162 °C,N#Cc1ccc(-c2cn(-c3ccc(I)cc3)c(SCc3ccncc3)n2)cc1
17,74 to 76 °C,O=C(NCCSCc1cccc(Br)c1)c1c(Cl)cccc1Cl
18,110 to 111 °C,CCOC(=O)c1c(CN(CC)CC)nc2sc(C)c(C)c2c1-c1ccc(OC)c(OC)c1
19,152 to 153 °C,CCNC(=O)c1cccc(-c2ccc3ncn(CCc4ccc(OC)c(OC)c4)c3n2)c1
20,222 to 224 °C,N#Cc1cnc2sc(-c3ccccc3C=O)cc2c1Nc1ccc2[nH]ccc2c1

row,melting point,SMILES
1,198 to 200 °C,O=C1/C(=C/C=C/c2ccccc2)CCc2cc(OCCn3ccnc3)ccc21
2,109 to 110 °C,CC(=O)n1c(CCc2ccccc2)cc2c(I)ccnc21
3,58 to 60 °C,CC(C)(C)OC(=O)NCCN1CC2CN(Cc3ccccc3)CC(C1)O2
4,194 to 197 °C,COc1ccc(C2C(C#N)=C(N)OC3=C2C(=O)CC(c2cccc4ccccc24)C3)cc1 (stereo unspecified)
5,118 to 119 °C,COC(=O)CC(O)CC(O)C=Cc1c2c(nn1-c1ccc(F)cc1)C(Cc1ccc(-c3ccccc3)cc1)CCC2 (racemic)
6,> 300 °C,COC(=O)Nc1nc2cc(C(c3ccc(F)cc3)n3ccnc3C)ccc2[nH]1 (stereo unspecified)
7,295 to 297 °C,COc1ccccc1-c1nc2ccc(C(=O)O)cc2c(=O)[nH]1
8,160 to 161 °C,N#CCCn1nc(-c2ccccc2)c(-c2ccccc2)c(C#N)c1=O
9,92 to 94.5 °C,O=C(O)CCCC/C=C/c1ccccc1CO
10,169 to 170 °C,"O=c1ccn(CCO)c(C(O)c2ccccc2)c1OCc1ccccc1 (single isomer, unassigned; (+))"
11,125 to 130 °C,COCCc1nc2c(N)nc3ccccc3c2n1CC(C)(C)CN(C(N)=O)c1ccccc1
12,242 to 244 °C,COc1ccc(S(=O)(=O)Nc2c(Cl)cncc2Cl)c2c1oc1ccccc12
13,232 to 235 °C,CCN(CC)CCN1NC(N)=c2cc3c(nc21)=CC(O)(OC)C=C3 (stereo unspecified)
14,240 °C,CCOC(=O)Cn1cc(C(=O)Nc2ccc(OCC(C)(C)C)c(C#N)c2)c(C)n1
15,262 to 264 °C,COc1ccc(Cc2nnc3c4ccccc4c(Nc4cccc(-c5nnn(C)n5)c4)nn23)cc1
16,150 to 151 °C,CC(=O)OCc1ccc(Sc2ccccc2C(=O)O)c([N+](=O)[O-])c1
17,127 °C,CC(=O)COc1ccc(-c2ccc(=O)n(Cc3ccc(Cl)cc3F)c2)cc1
18,183 to 184 °C,O=c1[nH]c(=O)n(CCCCl)c2ccccc12
19,78 to 79 °C,CC(C)COC(=O)Sc1ccc(-c2ccccc2)cc1
20,168 to 169 °C,COc1cc2c(c3c1OC(C)(C)C3)C(c1ccccc1)=NC(COC(C)=O)C2 (stereo unspecified)

row,melting point,SMILES
1,120 to 122 °C,Cc1ccc(S(=O)(=O)OCC2Cc3cccc(Br)c3O2)cc1 (stereo unspecified)
2,83 to 90 °C,COc1cc(N2CCN(C[C@@H](O)CO)CC2)ccc1Nc1ncc2ccc(-c3ccccc3OC)n2n1
3,134 to 138 °C,COCCNC(=O)c1cccc(-c2cccc3cc(C(C)(O)c4cccc(C(F)(F)F)c4)sc23)c1 (stereo unspecified)
4,70 to 72 °C,O=C(CCCO)NCc1ccccc1
5,208 to 209 °C,CN(C)C(=O)c1nn(-c2cccc(F)c2)c(=O)c2c1c1ccc(Cl)cc1n2C
6,183 to 185 °C,CC(C)C(=O)Oc1ccc2c(c1)-c1ncc(C(=O)O)c(=O)n1CC2
7,159 to 161 °C,N=C(NCc1ccncc1)NN=Cc1c(Cl)cccc1Cl
8,230 to 232 °C,NC(=O)c1nc(-c2cncc(Cl)c2)nc2c1[nH]c(=O)n2-c1ccccc1C(F)(F)F
9,248 to 249 °C,Cc1cc(Oc2ccc(S(C)(=O)=O)nc2)cc2cc(C3=NCC(CC(=O)O)S3)[nH]c12 (stereo unspecified)
10,88.5 to 94.5 °C,COc1cccc(Sc2ccc(O)cc2)n1
11,132 to 135 °C,COc1cc(C(C)O)ccc1OCCCC1CNCCC1C(c1ccc(F)cc1)c1ccc(F)cc1 (stereo unspecified)
12,289 to 290 °C,CN(C)C(=O)Cc1nn(-c2ccccc2)c(=O)c2[nH]c3ccc(F)cc3c12
13,116 to 118 °C,Cc1nc2cccc(C)n2c(=O)c1CCN1CCN(c2cccc(Cl)c2)CC1
14,199 to 200 °C,CN(C)C/C=C/C(=O)N1CCOc2cc3ncc(C#N)c(Nc4ccc(F)c(Cl)c4)c3cc21
15,171 to 173 °C,COc1cc(Nc2cccc(-c3ccccc3)c2)ccc1-c1cnco1
16,126 to 127 °C,ClCc1cc(OCc2ccc3ccccc3n2)no1
17,116 to 118 °C,CCOC(=O)/C=C(/c1ccc(OC)cc1)c1cc(Cl)cc(Cl)c1
18,165 to 166 °C,C=CCC1(CC=C)c2cccc(OC)c2C(=O)c2cccc(Cl)c21
19,264 to 266 °C,CN1CCN(c2cc3c(cc2F)c(=O)c(C(=O)O)c2ccccn23)CC1
20,107 to 109 °C,CCS(=O)(=O)c1ccc(C=O)cc1
